Data reported in ChEMBL document CHEMBL5316313, “Discovery of Novel 3-Phenylpiperidine Derivatives Targeting the β-Catenin/B-Cell Lymphoma 9 Interaction as a Single Agent and in Combination with the Anti-PD-1 Antibody for the Treatment of Colorectal Cancer” (J Med Chem, 2023).
Activity calls are given as the source filed them. The rule behind the calls is not given here.

What was measured:
[1] = Microsomal stability in mouse liver microsomes assessed as intrinsic clearance at […] and measured upto 60 mins by LC-MS/MS analysis; format: ADME, Microsome; conditions: read-out: CLH
CT26 [2] = assay: Induction of apoptosis in Wnt-dependent mouse CT26 cells assessed as necrotic cells at 10 uM incubated for 24 hrs by Annexin V-Alexa Fluor 647/PI staining based flow cytomtery (Rvb=1.04%); format: functional
CT26 [3] = assay: Induction of apoptosis in Wnt-dependent mouse CT26 cells assessed as late apoptotic cells at 10 uM incubated for 24 hrs by Annexin V-Alexa Fluor 647/PI staining based flow cytomtery (Rvb=9.96%); format: functional
CT26 [4] = assay: Induction of apoptosis in Wnt-dependent mouse CT26 cells assessed as viable cells at 10 uM incubated for 24 hrs by Annexin V-Alexa Fluor 647/PI staining based flow cytomtery (Rvb=70.7%); format: functional; conditions: read-out: Activity
HEK293 = assay: Antiproliferative activity against Wnt-independent human HEK293 cells assessed as cell growth inhibition at 40 uM incubated for 48 hrs by CellTiter-Glo assay; format: functional, cell-based
CT26 [5] = assay: Antitumor activity against mouse CT26 cells xenografted in BALB/c mouse assessed as tumor growth inhibition at 30 mg/kg, ip QD and measured upto 9 days; format: functional; conditions: CT26, 216 h, time <= 9 day, read-out: TGI
[6] = Toxicity in BALB/c mouse xenografted with mouse CT26 cells assessed as pathological changes in heart at 30 mg/kg, ip QD by hematoxylin and eosin staining based microscopic analysis; format: organism-based; conditions: in vivo
[7] = Toxicity in BALB/c mouse xenografted with mouse CT26 cells assessed as pathological changes in liver at 30 mg/kg, ip QD by hematoxylin and eosin staining based microscopic analysis; format: organism-based; conditions: in vivo
[8] = Half life in Sprague-Dawley rat at 21 mg/kg, ip and measured upto 24 hrs by LC-MS analysis; format: ADME, organism-based; conditions: in vivo
[9] = biological target: T1, beta-catenin-B-cell lymphoma 9 protein complex (Homo sapiens, UniProt P35222); assay: Inhibition of beta-catenin/BCL9 protein-protein interaction in Wnt-dependent human SW480 cells assessed as reduction in Axin2 expression level by qRT-PCR assay; format: cell-based
T1 sequence (P35222 whole entry): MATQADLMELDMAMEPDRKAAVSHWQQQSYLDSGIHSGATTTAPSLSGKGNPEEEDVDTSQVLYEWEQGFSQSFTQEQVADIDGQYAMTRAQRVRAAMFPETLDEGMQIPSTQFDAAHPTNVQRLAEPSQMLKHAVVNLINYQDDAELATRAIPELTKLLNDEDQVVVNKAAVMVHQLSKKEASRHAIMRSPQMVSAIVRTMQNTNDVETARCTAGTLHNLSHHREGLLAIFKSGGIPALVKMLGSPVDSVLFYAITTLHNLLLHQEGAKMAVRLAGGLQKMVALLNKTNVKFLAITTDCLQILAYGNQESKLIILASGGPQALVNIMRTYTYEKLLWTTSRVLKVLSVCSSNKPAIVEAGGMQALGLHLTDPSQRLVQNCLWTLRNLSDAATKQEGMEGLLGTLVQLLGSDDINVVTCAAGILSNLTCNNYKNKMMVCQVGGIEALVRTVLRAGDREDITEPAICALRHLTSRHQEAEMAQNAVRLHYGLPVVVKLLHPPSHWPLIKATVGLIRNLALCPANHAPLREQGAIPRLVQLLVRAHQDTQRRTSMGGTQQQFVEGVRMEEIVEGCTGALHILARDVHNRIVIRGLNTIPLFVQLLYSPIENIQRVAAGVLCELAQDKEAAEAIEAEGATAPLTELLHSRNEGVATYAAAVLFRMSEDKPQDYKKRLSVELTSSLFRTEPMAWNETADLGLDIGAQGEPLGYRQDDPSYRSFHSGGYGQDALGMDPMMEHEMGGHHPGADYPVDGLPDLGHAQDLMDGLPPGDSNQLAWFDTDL
T1 sequence (O00512 whole entry): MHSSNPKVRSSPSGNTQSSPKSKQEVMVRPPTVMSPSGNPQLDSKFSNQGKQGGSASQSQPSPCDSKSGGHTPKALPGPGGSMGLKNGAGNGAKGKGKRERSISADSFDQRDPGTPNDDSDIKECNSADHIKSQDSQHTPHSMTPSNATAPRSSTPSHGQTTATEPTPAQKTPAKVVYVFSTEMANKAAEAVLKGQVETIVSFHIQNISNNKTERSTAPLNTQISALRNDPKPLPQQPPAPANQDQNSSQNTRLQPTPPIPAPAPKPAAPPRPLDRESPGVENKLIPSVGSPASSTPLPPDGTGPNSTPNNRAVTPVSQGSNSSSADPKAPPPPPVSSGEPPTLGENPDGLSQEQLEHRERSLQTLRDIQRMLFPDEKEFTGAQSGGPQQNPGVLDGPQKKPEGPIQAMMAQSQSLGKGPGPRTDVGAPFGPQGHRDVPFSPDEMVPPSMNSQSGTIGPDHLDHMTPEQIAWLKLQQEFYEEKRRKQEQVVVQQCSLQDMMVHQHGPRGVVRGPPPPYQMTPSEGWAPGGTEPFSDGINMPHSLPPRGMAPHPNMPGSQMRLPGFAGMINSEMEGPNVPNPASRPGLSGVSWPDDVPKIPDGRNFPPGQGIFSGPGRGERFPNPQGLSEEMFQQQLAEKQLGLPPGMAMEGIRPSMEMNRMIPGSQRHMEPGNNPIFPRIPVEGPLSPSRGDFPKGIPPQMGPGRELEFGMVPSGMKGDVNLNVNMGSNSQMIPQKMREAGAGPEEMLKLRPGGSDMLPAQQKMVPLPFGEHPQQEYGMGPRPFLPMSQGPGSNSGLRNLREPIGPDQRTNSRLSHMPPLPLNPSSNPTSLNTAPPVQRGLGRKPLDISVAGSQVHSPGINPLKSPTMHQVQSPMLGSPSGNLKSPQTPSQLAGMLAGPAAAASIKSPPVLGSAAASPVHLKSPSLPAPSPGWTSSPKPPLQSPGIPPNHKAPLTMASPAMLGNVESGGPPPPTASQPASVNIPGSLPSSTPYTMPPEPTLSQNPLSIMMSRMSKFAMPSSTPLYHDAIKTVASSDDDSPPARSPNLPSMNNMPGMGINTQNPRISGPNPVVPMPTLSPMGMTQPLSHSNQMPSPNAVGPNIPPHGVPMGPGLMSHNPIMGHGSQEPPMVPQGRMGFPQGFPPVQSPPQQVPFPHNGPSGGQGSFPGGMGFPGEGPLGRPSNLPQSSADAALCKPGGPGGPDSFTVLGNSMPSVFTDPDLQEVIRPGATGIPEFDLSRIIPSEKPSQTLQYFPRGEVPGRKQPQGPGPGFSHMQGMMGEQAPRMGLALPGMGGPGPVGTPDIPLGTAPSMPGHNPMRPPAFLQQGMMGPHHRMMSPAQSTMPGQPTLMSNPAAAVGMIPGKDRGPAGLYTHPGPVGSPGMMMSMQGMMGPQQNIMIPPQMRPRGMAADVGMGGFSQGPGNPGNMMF

[10] = biological target: T1, beta-catenin-B-cell lymphoma 9 protein complex; assay: Inhibition of beta-catenin/BCL9 protein-protein interaction in Wnt-independent human HEK293 cells assessed as reduction in Axin2 expression level by qRT-PCR assay; format: cell-based

SMILES	microsomal CLint [1]	Activity (CT26 [2])	Activity (CT26 [3])	viability at 10 µM (CT26 [4])	Activity (HEK293)	inhibition in vivo at 30 mg/kg (CT26 [5])	Activity [6]	Activity [7]	half-life [8]	IC50 [9]	IC50 [10]
CC(C)c1ccc(-c2cccc(S(=O)(=O)N3CCCC(c4cccc(OC(C)(C)C(=O)NS(=O)(=O)c5ccc(C(F)(F)F)cc5)c4)C3)c2)cc1 (stereo unspecified)	66.2 µL/min/mg	1.91%	30.2%	43.8%	inactive	67.6%	Non-Toxic	Non-Toxic	1.15 h	–	–
O=C1[C@H](Cc2ccc(O)cc2)N2C(=O)CCN(C(=O)NCc3ccccc3)[C@H]2CN1Cc1cccc2ccccc12	–	–	–	–	–	–	–	–	–	10.6 µM	38.3 µM
